In publication PMC6374431, “NMR Analysis on Molecular Interaction of Lignin with Amino Acid Residues of Carbohydrate-Binding Module from Trichoderma reesei Cel7A” (Scientific Reports, 2019):

Molecular target: T1, TrCBM1 (CBM1 of TrCel7A, cellobiohydrolase I) (Trichoderma reesei, UniProt P62694)
T1 construct: gene cbh1; isolated C-terminal family 1 CBM (36 residues) plus residual residues at N- and C-termini from enterokinase and thrombin cleavage; His tag and GFP removed; E. coli BL21(DE3); 15N-labeled, mass 5255
T1 sequence (P62694 478-513): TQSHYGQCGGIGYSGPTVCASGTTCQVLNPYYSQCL
Test: NMR titration, chemical shift perturbation (1H-15N SOFAST-HMQC)
Type: binding
Settings: 100 μM 15N-TrCBM1, 100 mM citric acid buffer pH 5.0, 10% D2O, 298 K; cellohexaose 700-5600 μM; flat plane surface and cleft

OC[C@H]1O[C@@H](O[C@H]2[C@H](O)[C@@H](O)[C@H](O[C@H]3[C@H](O)[C@@H](O)[C@H](O[C@H]4[C@H](O)[C@@H](O)[C@H](O[C@H]5[C@H](O)[C@@H](O)[C@H](O[C@H]6[C@H](O)[C@@H](O)C(O)O[C@@H]6CO)O[C@@H]5CO)O[C@@H]4CO)O[C@@H]3CO)O[C@@H]2CO)[C@H](O)[C@@H](O)[C@@H]1O (stereo partly shown) [cellohexaose]
Δδ (CSP): The incremental addition of cellohexaose continuously increased Δδ.
